In patent US11071770B2, “Methods for detecting cardiac damage” (Acorda Therapeutics, Inc., priority 2007, dated 2021):
Marks after values point to notes of the source that are not given here. Where a SMILES comes first, the peptide text is derived from it. The star is where a group is joined. Cbz = O=C(OCc1ccccc1)*

Tests used:
[1] = test system: cTnI, cTnT and cTnC protein levels; test: Cardiac structural protein levels in heart by Western blot; type: in vivo, mouse
Procedure: (§1) FIGS. 1A-1C show survival graphs (A), histograms (B-C), and immunoblots (C). […] Fourteen day survival was analyzed by the Kaplan-Meier method.
Eight to ten week old C57BL/6 male mice were used for analyses wherein heart samples were isolated. […] Heart samples (n=3-4 per group) were collected and snap-frozen in liquid nitrogen.

[2] = test system: caspase 3, 6 and 9 as well as caspase-10, 2, and 5; test: Caspase activation assay in cardiomyocytes; type: cell-based, rat; settings: Dox or Dox+NRG1
Source text: To investigate whether NRG1 inhibited doxorubicin-induced caspase degradation of cTnI and cTnT, the present inventors first identified the specific caspases that were responsible for doxorubicin-induced degradation of cTnI and cTnT. […] In addition, down-regulation of cTnI was blocked by inhibitors for caspase-10 (extrinsic pathway), caspase-2, caspase-13 or caspase-5.

[3] = test system: serum creatine kinase (CK); test: Serum creatine kinase (CK) level; type: in vivo, mouse; settings: four days after doxorubicin injection
Procedure: as §1
Serum creatine kinase (CK) levels, an index of cardiac injury, were also assessed to provide an additional read-out of heart function.

[4] = test system: mTOR, P70S6K, S6 and eIF4G; test: Phosphorylation of translational molecules by Western blot; type: cell-based, rat; settings: cardiomyocytes, 48 hours after the treatment
Procedure: The phosphorylation levels of mTOR, P70S6K, S6, 4EBP and EIF4G were analyzed by Western blot analysis.
We assessed the activation of several translation machineries and related signaling pathways in Dox-Placebo and Dox-NRG1 treated cardiomyocytes.

cytochrome c release = test: Cytochrome c release (cell fractionation and Western blot); type: cell-based, rat; settings: NRCM, Dox or Dox+NRG1
[5] = test system: cTnI and cTnT protein levels; test: cTnI and cTnT protein levels in hearts of doxorubicin-treated WT and dnPI3K mice; type: in vivo, mouse; settings: two weeks after doxorubicin injection
Procedure: FIGS. 5A-5C show a survival graph (A), histograms (B), and an immunoblot (C). […] Fourteen-day survival was analyzed by the Kaplan-Meier method. FIG. 5B depicts hemodynamic measurements in doxorubicin-treated dnPI3K mice. […] Hemodynamic measurements were performed six days after the doxorubicin treatment.
The present inventors measured cTnI and cTnT protein levels in doxorubicin-treated WT and dnPI3K mice.

[6] = test system: mRNA of cTnI, cTnT, GATA4, MEF2c and Nkx2.5; test: mRNA levels by quantitative RT-PCR in cardiomyocytes; type: cell-based, rat; settings: for mRNA level of cTnI and cTnT: cardiomyocytes, Dox or Dox+NRG1
C57BL/6 mice [7] = test: Hemodynamic measurements by direct left ventricular catheterization, body and heart weights; type: in vivo, mouse
C57BL/6 mice [8] = test: Two-week survival of doxorubicin-treated mice (Kaplan-Meier); type: in vivo, mouse; settings: two weeks after doxorubicin 20 mg/kg i.p.; NRG1 0.75 mg/kg s.c. daily vs placebo; doxorubicin vs non-treated control
Procedure: as §1
Cardiac function was assessed by direct left ventricular (LV) catheterization four days and two weeks after doxorubicin treatment. Two-week survival was analyzed by the Kaplan-Meier methods.

[9] = test system: mice with cardiac myocyte-specific overexpression of a dominant negative PI3K; test: Survival of doxorubicin-treated WT and dnPI3K transgenic mice (Kaplan-Meier); type: in vivo, mouse; settings: doxorubicin 20 mg/kg i.p., fourteen-day
cTnI = test: Ubiquitinylation of cTnI (immunoprecipitation, ubiquitin antibody); type: cell-based, rat; settings: NRCM, Dox or Dox+NRG1
[10] = test system: neonatal rat cardiomyocytes; settings: NRCM, doxorubicin 1 uM
[11] = WT mice, NRG1 0.75 mg/kg s.c. or placebo
[12] = doxorubicin-treated cardiomyocytes

COc1cccc2c1C(=O)c1c(O)c3c(c(O)c1C2=O)C[C@@](O)(C(=O)CO)C[C@@H]3O[C@H]1C[C@H](N)[C@H](O)[C@H](C)O1 [doxorubicin]
levels of cardiac structural proteins (α-sarcomeric actin, α-actinin, TnT, TnI, TnC, tropomyosin) in hearts ([1]; doxorubicin 20 mg/kg i.p.): significantly decreased
activation of caspase 3, 6 and 9 as well as caspase-10, 2, and 5 [2]: significantly increased
serum CK level compared to control mice [3]: significantly increased
phosphorylation levels of mTOR, P70S6K, S6 and eIF4G [4]: decreased
cytochrome c release to the cytosol (cytochrome c release): induced increasing
cTnI protein level in dnPI3K hearts [5]: decrease
cTnT protein levels in hearts of doxorubicin-treated mice compared to control mice [5]: No changes
mRNA level of cTnI and cTnT [6]: decreased
BW (C57BL/6 mice [7]; C57BL/6 mice, doxorubicin 20 mg/kg i.p. single dose with placebo or NRG1 0.75 mg/kg s.c. daily, five days after doxorubicin): 20 ± 0.4 g
Cardiac Output (C57BL/6 mice [7]; as E1): 1185 ± 203 µL/min
EF (C57BL/6 mice [7]; as E1): 17 ± 2 %
HW/BW (C57BL/6 mice [7]; as E1): 4.1 ± 0.1 mg/g
HW/TL (C57BL/6 mice [7]; as E1): 5.1 ± 0.1 mg/mm
LVEDP (C57BL/6 mice [7]; as E1): 3.6 ± 0.9^ mmHg
LVW/BW (C57BL/6 mice [7]; as E1): 3.5 ± 0.1^ mg/g
LVW/TL (C57BL/6 mice [7]; as E1): 4.4 ± 0.1 mg/mm
dP/dt max (C57BL/6 mice [7]; as E1): 7067 ± 884 ^ mmHg/sec
dP/dt min (C57BL/6 mice [7]; as E1): 5021 ± 602*^ mmHg/sec
LVSP (C57BL/6 mice [7]; as E1, LV systolic pressure): 84 ± 2*^ mmHg
HW (C57BL/6 mice [7]; as E1, heart weight): 83 ± 3 mg
LVW (C57BL/6 mice [7]; as E1, left ventricular weight): 70 ± 1 mg
TL (C57BL/6 mice [7]; as E1, tibia length): 16.3 ± 0.2 ^ mm
survival (C57BL/6 mice [8]): significantly decreased
survival rate [9, 11]: 33%
ubiquitinylation of cTnI (cTnI): increased

CC(C)C[C@@H](C=O)NC(=O)[C@H](CC(C)C)NC(=O)[C@H](CC(C)C)NC(=O)OCc1ccccc1 [MG132] (Cbz-Leu-Leu-Leu-aldehyde)
effect on doxorubicin-induced down-regulation of cTnI [10]: blocked

B1: NRG1: GGF2, a recombinant neuregulin-1; gift from Acorda Therapeutics (protein)
chain: GNEAAPAGASVCYSSPPSVGSVQELAQRAAVVIEGKVHPQRRQQGALDRKAAAAAGEAGAWGGDREPPAAGPRALGPPAEEPLLAANGTVPSWPTAPVPSAGEPGEEAPYLVKVHQVWAVKAGGLKKDSLLTVRLGTWGHPAFPSCGRLKEDSRYIFFMEPDANSTSRAPAAFRASFPPLETGRNLKKEVSRVLCKRCALPPRLKEMKSQESAAGSKLVLRCETSSEYSSLRFKWFKNGNELNRKNKPQNIKIQKKPGKSELRINKASLADSGEYMCKVISKLGNDSASANITIVESNATSTSTTGTSHLVKCAEKEKTFCVNGGECFMVKDLSNPSRYLCKCPNEFTGDRCQNYVMASFYSTSTPFLSLPE
protein levels of cTnI, cTnT and cTnC in doxorubicin-injured hearts ([1]; NRG1 0.75 mg/kg s.c. daily, doxorubicin 20 mg/kg i.p., five days after doxorubicin): significantly increased
protein levels of α-sarcomeric actin, α-actinin and tropomyosin in doxorubicin-injured hearts ([1]; NRG1 injection in vivo): had no effects
activation of caspase 3, 6 and 9 as well as caspase-10, 2, and 5 [2]: significantly inhibited
cytochrome c release to the cytosol (cytochrome c release): inhibited this effect
cTnI protein level in dnPI3K hearts [5]: abolished doxorubicin-induced down-regulation
mRNA level of cTnI and cTnT [6]: maintained
mRNA level of GATA4 [6, 12]: maintained
mRNA level of MEF2c and Nkx2.5 [6, 12]: slightly increased
survival (C57BL/6 mice [8]): significantly improved survival
survival rate [9, 11]: 67%
survival rate ([9]; dnPI3K mice, NRG1 0.75 mg/kg s.c.): 56%
ubiquitinylation of cTnI (cTnI): abolished this effect
